Results reported in PMC8111002 (Communications Biology, 2021).
Square brackets hold non-standard residues; d marks the D form. Ends that are not written are not given here. Peptide text beside a SMILES is read from it. βAla = NCCC(=O)O

Experiments:
Stx1a = Stx1a (UniProt P08026+P69178); assay: cell-based; set-up: species or system Escherichia coli
Stx2a = Stx2a (Escherichia phage 933W, UniProt P09385+P09386); assay: cell-based; set-up: species or system Escherichia coli
Stx1a A-subunit = Stx1a A-subunit (Enterobacteria phage H19B, UniProt P08026); assay: biochemical; format: binding, Escherichia coli
Stx2a A-subunit = Stx2a A-subunit (Escherichia phage 933W, UniProt P09385); assay: biochemical; format: binding, Escherichia coli
A-subunit = format: binding, Escherichia coli
EHEC = conditions: mouse, in vivo; cited from earlier work
[1] = biological target: B-subunits of Stx1a and Stx2a; conditions: cited from earlier work

Molecule `CSCC[C@H](NC(=O)[C@H](C)NC(=O)[C@@H](N)CCSC)C(=O)N[C@@H](CCSC)C(=O)NCCC(=O)N[C@@H](CCCNC(=N)N)C(=O)N[C@@H](CCCNC(=N)N)C(=O)N[C@@H](CCCNC(=N)N)C(=O)N[C@@H](CCCNC(=N)N)C(=O)N[C@@H](C)C(N)=O` [MMβA-mono] (H-MAMM[βAla]RRRRA-NH2) has an IC50 (Stx1a) of 59.2 µM, an IC50 (Stx2a) of 9.6 µM and a Kd (Stx1a A-subunit) of 0.032 µM. It also gave a Kd (Stx2a A-subunit) of 0.05 µM.
For Arg-Arg-Arg-Arg (RRRR), the “inhibition of the binding between MMβA-mono and the A-subunit” value (shortened to “inhibition”) (A-subunit) was “efficiently inhibited”.
For MMARRRR [MMA-tet], the “inhibitory effects against the lethality in EHEC infected mice” value (EHEC) is listed as “potent inhibitory effects”.
For Arg-Arg-Arg-Arg-Ala (RRRRA), the “inhibition” value (A-subunit) was “efficiently inhibited”.
For ARRRRA, the “inhibition” value (A-subunit) was “efficiently inhibited”.
For “Galα[1-4]-Galβ[1-4]-Glcβ- [free trisaccharide]”, the Kd [1] is listed as “mM order”.
